# PubChem BioAssay (NCI)
# Values joined by “and” are separate entries in the source; they are usually repeats but may differ in a detail not shown here. Equal values may be shown once.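 Where inhibition never reached the appropriate level, the endpoint shown equals the highest concentration tested. Otherwise, values were interpolated linearly from a five-concentration, 48-hour dose response in 96-well plates. At the GI50, growth is halved. TGI: total growth inhibition.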
# Tests used:
# Test in all cases: inhibition of tumour cell growth, NCI panel, 48 h
# 786-0 renal = test system: 786-0 renal
# MDA-MB-435 = test system: MDA-MB-435
# BT-549 breast = test system: BT-549 breast
# SK-MEL-2 melanoma = test system: SK-MEL-2 melanoma
# SNB-19 CNS = test system: SNB-19 CNS
# HCT-116 colon = test system: HCT-116 colon
# OVCAR-5 ovarian = test system: OVCAR-5 ovarian
# SK-MEL-5 melanoma = test system: SK-MEL-5 melanoma
# A498 renal = test system: A498 renal
# NCI-H23 lung = test system: NCI-H23 lung
Compound,GI50 (786-0 renal),TGI (786-0 renal) [µM],GI50 (MDA-MB-435) [µM],TGI (MDA-MB-435) [µM],GI50 (BT-549 breast) [µM],TGI (BT-549 breast) [µM],GI50 (SK-MEL-2 melanoma),TGI (SK-MEL-2 melanoma) [µM],GI50 (SNB-19 CNS) [µM],TGI (SNB-19 CNS) [µM],GI50 (HCT-116 colon),TGI (HCT-116 colon),GI50 (OVCAR-5 ovarian) [µM],TGI (OVCAR-5 ovarian) [µM],GI50 (SK-MEL-5 melanoma) [µM],TGI (SK-MEL-5 melanoma) [µM],GI50 (A498 renal) [µM],TGI (A498 renal) [µM],GI50 (NCI-H23 lung) [µM],TGI (NCI-H23 lung) [µM]
CC(C)n1nc(C#Cc2cccc(NC(=O)c3cccc(C(F)(F)F)c3)c2)c2c(N)ncnc21,2.65 µM,14.3,1.67,> 100,2.46,47.7,0.308 µM,1.96,4.21,> 100,0.308 µM,3.89 µM,1.36,27.7,2.55,30.8,1.07,2.51,1.95,22.8
O=C(NO)C(O)C(O)C(O)C(O)CO (stereo not given),> 100 µM and 55.9 µM,> 100,> 100,> 100,> 100,> 100,> 100 µM and 76.6 µM,> 100,> 100,> 100,> 100 µM and 27.1 µM,> 100 µM and 73.5 µM,> 100,> 100,> 100,> 100,> 100,> 100,> 100,> 100
CC1SC2(CCCCC2)N(NC(=O)c2[nH]c3ccc(F)cc3c2-c2ccccc2)C1=O (stereo not given),28.4 µM,89.2,> 100,> 100,> 100,> 100,76.2 µM,> 100,55.6,> 100,64.9 µM,> 100 µM,> 100,> 100,> 100,> 100,> 100,> 100,> 100,> 100
COc1cc(C(=O)N/N=C/c2cccc([N+](=O)[O-])c2)cc(OC)c1OC,5.8 µM,> 100,1.09,3.88,4.95,86.6,4.16 µM,> 100,55.1,> 100,4.09 µM,> 100 µM,39.7,> 100,2.76,> 100,1.79,7.29,5.96,> 100
C=C(CC1(CC(=C)c2ccc(C(=O)O)cc2)C(=O)N(C)C(=O)N(C)C1=O)c1ccc(C(=O)O)cc1,> 100 µM,> 100,51.7,> 100,> 100,> 100,> 100 µM,> 100,> 100,> 100,49.6 µM,> 100 µM,43.6,> 100,73.1,> 100,53.2,> 100,> 100,> 100
CCN(CC)CCOc1ccc(C2=C(c3ccccc3)CCc3cc(OC)ccc32)cc1,1.51 µM,2.88,1.48,3.4,4.17,15.2,2.15 µM,4.67,2.38,7.42,1.55 µM,4.19 µM,2.31,5.52,0.811,2.29,4.23,9.44,2.9,11.3
